Experimental data: ChEMBL document CHEMBL5724709, “EUbOPEN Chemogenomics Library - IncuCyte” (2024)
Square brackets hold non-standard residues; d marks the D form. Peptide text beside a SMILES is read from it. * marks the point of attachment. Nle = CCCC[C@H](N)C(=O)O; Cbz = O=C(OCc1ccccc1)*; Boc = CC(C)(C)OC(=O)*; CH2Cl = ClC*; CH2F = FC*

Columns and labels:
Format in all cases: toxicity, cell-based
HEK-293T = assay: Incucyte cell viability with HEK293T; settings: human, 24 h, 10 µM, compound concentration 10 uM
Fibroblast = assay: Incucyte cell viability with human fibroblast; settings: 24 h, 10 µM, compound concentration 10 uM
U2OS = assay: Incucyte cell viability with U2OS; settings: human, 24 h, 10 µM, compound concentration 10 uM
Note: unitless GR value; below 1 slowed growth and below 0 cell loss.

Row | Compound | Growth Rate (HEK-293T; replicate number 1) | Growth Rate (HEK-293T; replicate number 2) | Growth Rate (Fibroblast; replicate number 1) | Growth Rate (Fibroblast; replicate number 2) | Growth Rate (U2OS; replicate number 1) | Growth Rate (U2OS; replicate number 2)
1 | O=C1Cc2cc(C(=O)N[C@@H]3C[C@H]4CC[C@@H](C3)N4S(=O)(=O)CC3CCN(CCCC(F)(F)F)CC3)c(Cl)cc2N1 | 0.97 | 1 | 0.96 | 0.61 | 1 | –
2 | CC(=O)N[C@@H](C)C(=O)N[C@@H](CCC(=O)O)C(=O)N[C@H](C(=O)N[C@@H](C=O)CC(=O)O)C(C)C (Ac-AEV[dD]-aldehyde) | 0.78 | 1 | 0.31 | 0.14 | 0.88 | 0.76
3 | CSCC[C@H](NC(=O)[C@H](CC(=O)O)NC(C)=O)C(=O)N[C@@H](CCC(N)=O)C(=O)N[C@H](C=O)CC(=O)O.O=C(O)C(F)(F)F (Ac-DMQD-aldehyde) | 1 | 0.97 | 0.25 | 1 | 1 | –
4 | CC(=O)N[C@@H](Cc1ccccc1)C(=O)N[C@@H](CC(C)C)C(=O)N[C@H](C(=O)N[C@@H](CC(=O)O)C(=O)CCl)[C@@H](C)O (Ac-FLTD-CH2Cl) | 0.96 | 0.99 | 0.51 | 1 | 0.81 | 0.66
5 | CC[C@H](C)[C@H](NC(C)=O)C(=O)N[C@@H](CCC(=O)O)C(=O)N[C@H](C(=O)N[C@H](C=O)CC(=O)O)[C@@H](C)O.O=C(O)C(F)(F)F (Ac-IETD-aldehyde) | 0.57 | 1 | 0.25 | 0.42 | 1 | –
6 | CC(=O)N[C@@H](CC(C)C)C(=O)N[C@@H](CCC(=O)O)C(=O)N[C@@H](Cc1cnc[nH]1)C(=O)N[C@@H](CC(=O)O)C(=O)CCl.O=C(O)C(F)(F)F (Ac-LEHD-CH2Cl) | 0.35 | 0.95 | 0.44 | 1 | 0.62 | 1
7 | CC(=O)N[C@@H](CC(C)C)C(=O)N[C@@H](CCC(=O)O)C(=O)N[C@@H](Cc1cnc[nH]1)C(=O)N[C@H](C=O)CC(=O)O.O=C(O)C(F)(F)F (Ac-LEHD-aldehyde) | 0.81 | 0.98 | 1 | 0.49 | 1 | 0.89
8 | CC(=O)N[C@@H](CC(C)C)C(=O)N[C@@H](CCC(=O)O)C(=O)N[C@H](C(=O)N[C@H](C=O)CC(=O)O)C(C)C (Ac-LEVD-aldehyde) | 0.89 | 0.82 | 0.82 | 0.19 | 0.75 | 1
9 | CCCC[C@@H](C=O)NC(=O)[C@H](CC(C)C)NC(=O)[C@H](CC(C)C)NC(C)=O (Ac-Leu-Leu-[Nle]-aldehyde) | -0.02 | 0.18 | 0.53 | 1 | -0.08 | 0.62
10 | CC(=O)N[C@H](C(=O)N[C@@H](CC(=O)O)C(=O)N[C@H](C(=O)N[C@@H](C)C(=O)N[C@H](C=O)CC(=O)O)C(C)C)C(C)C (Ac-VDVAD-aldehyde) | 0.65 | 1 | 0.52 | 1 | 0.65 | 0.76
11 | CC[C@H](C)[C@H](NC(=O)[C@H](CCC(=O)O)NC(=O)[C@@H](NC(C)=O)C(C)C)C(=O)N[C@H](C=O)CC(=O)O.O=C(O)C(F)(F)F (Ac-VEID-aldehyde) | 0.64 | 0.97 | 1 | 0.22 | 1 | –
12 | CC(C)[C@H](NC(=O)[C@H](CCC(=O)O)NC(=O)[C@H](C)NC(=O)OC(C)(C)C)C(=O)N[C@H](C=O)CC(=O)O.O=C(O)C(F)(F)F (Boc-AEVD-aldehyde) | 0.66 | 0.93 | 0.24 | 1 | 1 | –
13 | COC(=O)CC[C@H](NC(=O)[C@H](C)NC(=O)OCc1ccccc1)C(=O)N[C@H](C(=O)N[C@@H](CC(=O)OC)C(=O)CF)C(C)C (Cbz-AE(OMe)VD(OMe)-CH2F) | 0.7 | 0.98 | 0.35 | 1 | 1 | –
14 | O=CC1CCCN1C(=O)C1CCCN1C(=O)OCc1ccccc1 (stereo not drawn) (Cbz-Pro-Pro-aldehyde; configuration not given here) | 0.88 | 0.71 | 0.22 | 0.25 | 0.37 | 0.84
15 | COC(=O)CC[C@H](NC(=O)[C@H](Cc1c[nH]c2ccccc12)NC(=O)OCc1ccccc1)C(=O)N[C@@H](Cc1cnc[nH]1)C(=O)N[C@@H](CC(=O)OC)C(=O)CF (Cbz-WE(OMe)HD(OMe)-CH2F) | 0.94 | 0.95 | 0.4 | 1 | 0.82 | 0.99
16 | CCCC(NC(=O)C(CC(C)C)NC(=O)OCc1ccccc1)C(=O)C(=O)NCc1ccccn1 (racemic) | 0.78 | 1 | 0.96 | 1 | 1 | 0.89
